Test results published in US10874108B2, “Anti-microbial compositions” (5D HEALTH PROTECTION GROUP LTD, priority 2016, dated 2020).
Like-named read-outs stand apart in the source and are kept apart here.

Legend:
[1] = Displacement of metals from EDTA complexes by physiological saline; type: physicochemical
Protocol: Adding saline to the suspension of Ag4(EDTA), the suspension quickly precipitated a solid (AgCl). The precipitate was filtered off, washed with deionized water 4 times; and then dried in a vacuum oven at 50° C. in a dark flask to avoid exposure to direct light.
The displacement experiment described above was repeated for compounds 1-4 to provide the percent of the displacement of silver, copper, zinc from the EDTA complexes by physiological saline.

P. aeruginosa biofilms [2] = test: CDC bioreactor biofilm LR/kill, EDTA compounds at 100 ppm silver; type: cell-based; conditions: 100 ppm of silver, exposed 24 hours
Protocol: (§1) Microbial cultures were exposed to compounds for 24 hours. Compounds were diluted according to 100 ppm of silver. Biofilms were formed using the CDC bioreactor. Samples were performed in triplicate.

S. aureus biofilms [3] = test: as above; type: cell-based; conditions: 100 ppm of silver, exposed 24 hours
Protocol: as §1

cells [4] = test: Indirect cytotoxicity, agar diffusion method
cells [5] = test: Direct cytotoxicity, Neutral Red Uptake assay
[6] = tested on: S. aureus 24-hour CDC biofilms; test: Colonies after exposure of 24-hour CDC biofilms to EDTA compounds; type: cell-based
[7] = tested on: P. aeruginosa 24-hour CDC biofilms; test: as above; type: cell-based
cells [8] = tested on: cells
cells [9] = tested on: cells; remark: listed apart in the source
[10] = tested on: P. aeruginosa 24-hour biofilm
Protocol: (§2) Minimum inhibitory concentration (MIC), minimum biocidal concentration (MBC) and minimum biofilm eradication (MBEC) were determined. Values represent a percentage of the stock antimicrobial solution (8%).

[11] = tested on: S. aureus 24-hour biofilm
Protocol: as §2

P. aeruginosa biofilms [12] = conditions: 4%
Protocol: (§3) The Mean Log10 density of untreated controls was calculated (±standard deviation).

S. aureus biofilms [13] = conditions: 4%
Protocol: as §3

[14] = tested on: E. faecalis ATCC 29212 biofilm; test: MBEC model (ASTM E2799), liquid formulas; type: cell-based; conditions: treated 24 hours
Protocol: (§4) The MBEC model (ASTM E2799) was used to assess the anti-biofilm efficacy of the liquid formulas. Biofilms were grown on polystyrene pegs in the MBEC model for either 24 or 48 hours before treatment. Using the liquid form of the EDTA complexes 24- and 48-hour biofilms were tested (Table 20).
(§5) 24- and 48-hour biofilms were formed using MBEC plate method and treated for 24 hours. Technical replicates n=3. Log reduction (LR) values show±standard error (SE) of LR value.

[15] = tested on: P. aeruginosa NCTC 10662 biofilm; test: MBEC model (ASTM E2799), liquid formulas; type: cell-based; conditions: treated 24 hours
Protocol: as §4, §5

[16] = tested on: S. aureus ATCC 29213 biofilm; test: MBEC model (ASTM E2799), liquid formulas; type: cell-based; conditions: treated 24 hours
Protocol: as §4, §5

[17] = tested on: S. aureus MRSA BAA-43 biofilm; test: MBEC model (ASTM E2799), liquid formulas; type: cell-based; conditions: treated 24 hours
Protocol: as §4, §5

[18] = tested on: S. epidermidis ATCC 35984 biofilm; test: MBEC model (ASTM E2799), liquid formulas; type: cell-based; conditions: treated 24 hours
Protocol: as §4, §5

[19] = 24-Hour Biofilms, Treatment Time 1
[20] = 24-Hour Biofilms, Treatment Time 5
[21] = 24-Hour Biofilms, Treatment Time 15
[22] = 72-Hour Biofilms, Treatment Time 1
[23] = 72-Hour Biofilms, Treatment Time 5
[24] = 72-Hour Biofilms, Treatment Time 15

## O=C([O-])CN(CCN(CC(=O)[O-])CC(=O)[O-])CC(=O)[O-].[Ag+].[Cu+2].[Na+] [Compound 1, AgCuNaEDTA]
[1]
  Displacement (%) Copper: 53.49 ± 5.56%
  Displacement (%) Silver: 81.37 ± 4.29%
P. aeruginosa biofilms [2]
  Kill %: 99.99%
  LR: 3.88 ± 0.15
P. aeruginosa biofilms [2]; listed as Ag/Cu/NaEDTA
  LR: 3.5
S. aureus biofilms [3]
  Kill %: 100%
Cells [4]; 25 ppm
  Lysis Index: 1
  Zone Index: 2
Cells [4]; 50 ppm
  Lysis Index: 1
  Zone Index: 3
Cells [4]; 100 ppm
  Lysis Index: 1
  Zone Index: 3
Cells [5]; 25 ppm
  Interpretation: Cytotoxic (if the percentage viability is less than 70% of the untreated control, then the substance is considered cytotoxic)
  Percentage of Control/Percentage Viability (%): 51.54 ± 9.44%
Cells [5]; 50 ppm
  Interpretation: Cytotoxic (if the percentage viability is less than 70% of the untreated control, then the substance is considered cytotoxic)
  Percentage of Control/Percentage Viability (%): 53.66 ± 9.48%
Cells [5]; 100 ppm
  Interpretation: Cytotoxic (if the percentage viability is less than 70% of the untreated control, then the substance is considered cytotoxic)
  Percentage of Control/Percentage Viability (%): 52.57 ± 8.97%

## O=C([O-])CN(CCN(CC(=O)[O-])CC(=O)[O-])CC(=O)[O-].[Ag+].[Ag+].[Cu+2] [Compound 2, Ag2CuEDTA]
[1]
  Displacement (%) Copper: 41.37 ± 6.92%
  Displacement (%) Silver: 77.99 ± 3.90%
[6]
  Number of colonies detected: 0 Cfu/ml
[7]
  Number of colonies detected: 0 Cfu/ml
P. aeruginosa biofilms [2]
  Kill %: 99.95%
  LR: 3.31 ± 0.01
S. aureus biofilms [3]
  Kill %: 99.99%
  LR: 4.0 ± 0.20
Cells [4]; 25 ppm
  Lysis Index: 1
  Zone Index: 2
Cells [4]; 50 ppm
  Lysis Index: 1
  Zone Index: 2
Cells [4]; 100 ppm
  Lysis Index: 1
  Zone Index: 2
Cells [5]; 25 ppm
  Interpretation: Non cytotoxic (if the percentage viability is less than 70% of the untreated control, then the substance is considered cytotoxic)
  Percentage of Control/Percentage Viability (%): 72.21 ± 3.74%
Cells [5]; 50 ppm
  Interpretation: Non cytotoxic (if the percentage viability is less than 70% of the untreated control, then the substance is considered cytotoxic)
  Percentage of Control/Percentage Viability (%): 72.01 ± 7.41%
Cells [5]; 100 ppm
  Interpretation: Non cytotoxic (if the percentage viability is less than 70% of the untreated control, then the substance is considered cytotoxic)
  Percentage of Control/Percentage Viability (%): 72.09 ± 17.57%

## O=C([O-])CN(CCN(CC(=O)[O-])CC(=O)[O-])CC(=O)[O-].[Ag+].[Na+].[Zn+2] [Compound 3, AgZnNaEDTA]
[1]
  Displacement (%) Silver: 82.32 ± 5.63%
  Displacement (%) Zinc: 47.33 ± 13.29 %
[6]
  Number of colonies detected: 0 Cfu/ml
[7]
  Number of colonies detected: 0 Cfu/ml
P. aeruginosa biofilms [2]
  Kill %: 99.97%
  LR: 3.51 ± 0.04
P. aeruginosa biofilms [2]; listed as Ag/Zn/NaEDTA
  LR: 3.5
S. aureus biofilms [3]
  Kill %: 100%
Cells [8]
  percentage viability: 46.46-63.08%
Cells [4]; 25 ppm
  Lysis Index: 1
  Zone Index: 2
Cells [4]; 50 ppm
  Lysis Index: 1
  Zone Index: 2
Cells [4]; 100 ppm
  Lysis Index: 1
  Zone Index: 3

## O=C([O-])CN(CCN(CC(=O)[O-])CC(=O)[O-])CC(=O)[O-].[Cu+2].[Na+].[Na+] [Cu—Na-EDTA, reference compound]
[6]
  Number of colonies detected: 0 Cfu/ml
[7]
  Number of colonies detected: 0 Cfu/ml

## Oc1ccccc1 [Phenol]
Cells [9]
  Lysis Index: 3
  Zone Index: 5

## O.O=C([O-])CN(CCN(CC(=O)[O-])CC(=O)[O-])CC(=O)[O-].[Na+].[Na+].[Na+].[Na+] [Tetrasodium EDTA, ethylenediaminetetraacetic acid tetrasodium salt hydrate]
[10]; 1 min
  MBC: 50 percentage of the stock antimicrobial solution (8%)
  MIC: 25 percentage of the stock antimicrobial solution (8%)
[10]; 30 min
  MBC: 50 percentage of the stock antimicrobial solution (8%)
  MIC: 12.5 percentage of the stock antimicrobial solution (8%)
[10]; 1 h
  MBC: 25 percentage of the stock antimicrobial solution (8%)
  MBEC: 6.25 percentage of the stock antimicrobial solution (8%)
  MIC: 25 percentage of the stock antimicrobial solution (8%)
[10]; 24 h
  MBC: 6.25 percentage of the stock antimicrobial solution (8%)
  MBEC: 6.25 percentage of the stock antimicrobial solution (8%)
  MIC: 6.25 percentage of the stock antimicrobial solution (8%)
[11]; 1 min
  MBC: 50 percentage of the stock antimicrobial solution (8%)
  MIC: 25 percentage of the stock antimicrobial solution (8%)
[11]; 30 min
  MBC: 50 percentage of the stock antimicrobial solution (8%)
  MIC: 12.5 percentage of the stock antimicrobial solution (8%)
[11]; 1 h
  MBC: 25 percentage of the stock antimicrobial solution (8%)
  MBEC: 6.25 percentage of the stock antimicrobial solution (8%)
  MIC: 25 percentage of the stock antimicrobial solution (8%)
[11]; 24 h
  MBC: 6.25 percentage of the stock antimicrobial solution (8%)
  MBEC: 6.25 percentage of the stock antimicrobial solution (8%)
  MIC: 6.25 percentage of the stock antimicrobial solution (8%)
P. aeruginosa biofilms [12]; [19]
  Kill %: 83.018%
  LR: 0.77 ± 0.08
P. aeruginosa biofilms [12]; [20]
  Kill %: 97.92%
  LR: 1.68 ± 0.05
P. aeruginosa biofilms [12]; [21]
  Kill %: 99.51%
  LR: 2.31 ± 0.10
P. aeruginosa biofilms [12]; [22]
  Kill %: 99.22%
  LR: 2.10 ± 0.05
P. aeruginosa biofilms [12]; [23]
  Kill %: 99.56%
  LR: 2.35 ± 0.02
P. aeruginosa biofilms [12]; [24]
  Kill %: 95.07%
  LR: 1.31 ± 0.12
S. aureus biofilms [13]; [19]
  Kill %: 97.41%
  LR: 1.59 ± 1.56
S. aureus biofilms [13]; [20]
  Kill %: 59.90%
  LR: 0.40 ± 0.05
S. aureus biofilms [13]; [21]
  Kill %: 80.51%
  LR: 0.71 ± 0.11
S. aureus biofilms [13]; [22]
  Kill %: 54.09%
  LR: 0.34 ± 0.37
S. aureus biofilms [13]; [23]
  Kill %: 79.86%
  LR: 0.70 ± 0.05
S. aureus biofilms [13]; [24]
  Kill %: 80.25%
  LR: 0.70 ± 0.02
[14]; 4%, 24-Hour Biofilm
  Kill %: 100%
  LR: 6.35
[14]; 4%, 48-Hour Biofilm
  Kill %: 100%
  LR: 6.40
[15]; 4%, 24-Hour Biofilm
  Kill %: 99.9998%
[15]; 4%, 24-Hour Biofilm, hydrate
  LR: 5.94±3.43
[15]; 4%, 24-Hour Biofilm, listed as tEDTA, hydrate
  LR: 5.94 ± 3.43
[15]; 4%, 48-Hour Biofilm
  Kill %: 99.9999%
[15]; 4%, 48-Hour Biofilm, hydrate
  LR: 6.99±4.04
[15]; 4%, 48-Hour Biofilm, listed as tEDTA, hydrate
  LR: 6.99 ± 4.04
[16]; 4%, 24-Hour Biofilm
  Kill %: 100%
  LR: 6.44
[16]; 4%, 48-Hour Biofilm
  Kill %: 100%
  LR: 6.50
[17]; 4%, 24-Hour Biofilm
  Kill %: 100%
  LR: 5.40
[17]; 4%, 48-Hour Biofilm
  Kill %: 100%
  LR: 6.43
[18]; 4%, 24-Hour Biofilm
  Kill %: 100%
  LR: 6.09
[18]; 4%, 48-Hour Biofilm
  Kill %: 100%
  LR: 6.41

## Silver
[14]; 50 ppm, 24-Hour Biofilm
  Kill %: 100%
  LR: 6.35
[14]; 50 ppm, 48-Hour Biofilm
  Kill %: 100%
  LR: 6.40
[14]; 100 ppm, 24-Hour Biofilm
  Kill %: 100%
  LR: 6.35
[14]; 100 ppm, 48-Hour Biofilm
  Kill %: 100%
  LR: 6.40
[15]; 50 ppm, 24-Hour Biofilm
  Kill %: 100%
  LR: 7.44
[15]; 50 ppm, 48-Hour Biofilm
  Kill %: 100%
  LR: 8.44
[15]; 100 ppm, 24-Hour Biofilm
  Kill %: 100%
  LR: 7.44
[15]; 100 ppm, 48-Hour Biofilm
  Kill %: 100%
  LR: 8.44
[16]; 50 ppm, 24-Hour Biofilm
  Kill %: 100%
  LR: 6.44
[16]; 50 ppm, 48-Hour Biofilm
  Kill %: 100%
  LR: 6.50
[16]; 100 ppm, 24-Hour Biofilm
  Kill %: 100%
  LR: 6.44
[16]; 100 ppm, 48-Hour Biofilm
  Kill %: 100%
  LR: 6.50
[17]; 50 ppm, 24-Hour Biofilm
  Kill %: 100%
  LR: 5.40
[17]; 50 ppm, 48-Hour Biofilm
  Kill %: 100%
  LR: 6.43
[17]; 100 ppm, 24-Hour Biofilm
  Kill %: 100%
  LR: 5.40
[17]; 100 ppm, 48-Hour Biofilm
  Kill %: 100%
  LR: 6.43
[18]; 50 ppm, 24-Hour Biofilm
  Kill %: 100%
  LR: 6.09
[18]; 50 ppm, 48-Hour Biofilm
  Kill %: 100%
  LR: 6.41
[18]; 100 ppm, 24-Hour Biofilm
  Kill %: 100%
  LR: 6.09
[18]; 100 ppm, 48-Hour Biofilm
  Kill %: 100%
  LR: 6.41
